Reference: US8778959B2, “AZA-bridged ring-fused indoles and indolines” (AbbVie Inc., priority 2009, dated 2014)

Tested on: SK-N-SH human neuroblastoma cells
Assay: Serum Deprivation/JC-1 Mitochondrial Membrane Potential (MMP) Assay
Type: cell-based
Details: Homo sapiens, SK-N-SH, 18 h; for Emax: percent maximal intensity in JC-1 ratio normalized to peak value for 10 μM dimebolin, read-out: JC-1 max %; for EC50: serum deprivation ~18 hours, JC-1 ratio normalized to peak value for 10 μM dimebolin, single curve fit to mean of n=2-3
Method: SK-N-SH human neuroblastoma cells obtained from American Type Culture Collection (Rockville, Md.) were maintained in the log phase of growth in Minimal Essential Media (MEM), 10% heat inactivated fetal calf serum and 100 units/mL antibiotic-antimycotic (AA). Cells were cultured and maintained in a humidified incubator at 37° C. under 5% CO2 and 95% air. Cells were trypsinized (0.25%) and subcultured every 3 days and used from 15-18 passages. All cell culture supplies were obtained from Invitrogen (Carlsbad, Calif.).
SK-N-SH cells were plated 2-3 days in advance at a concentration of 50,000 cells/well onto collagen coated black-walled 96 well plates (Becton-Dickinson, Bedford, Mass.) in a total volume of 200 μL. On day of experimental treatment, the media containing serum was aspirated from each well and rinsed once with MEM/1% AA without serum. The cells then were incubated overnight in 100 μL of MEM/1% AA (no serum) with and without dimebolin or novel chemical entities overnight for ˜18 hours. The following day, JC-1 dye (5,5′,6,6′-tetrachloro-1,1′,3,3′-tetraethylbenzimidazolcarbocyanide) was diluted 1:10 into MEM media according to the JC-1 Mitochondrial Membrane Potential Assay Kit: (Cayman Chemical Company, Ann Arbor, Mich.) and then 10 μL of the JC-1 dye solution was added to each well. The plates were centrifuged for 5 minutes at 400×g at room temperature followed by 35 minute incubation at 37° C. The plates were washed twice with 200 μL of provided Assay Buffer followed an addition of 100 μL of Assay Buffer to each well. The plates were read with an excitation and emission of 560 nm and 595 nM for red fluorescence and with an excitation and emission of […] and 535 nM for green fluorescence to determine the final JC-1 value taking the red to green fluorescence ratio. This assay is based on change in mitochondrial membrane potential (MMP) using this lipophilic cationic dye, JC-1, by monitoring the changes in the ratio of red to green fluorescence as the MMP depolarizes. This change in MMP reflects the health of the cell with healthy, viable cells have a high JC-1 ratio and high MMP whereas apoptotic, unhealthy cells have a low JC-1 ratio or low MMP.
For the ability of compounds to reverse the stress due to serum deprivation and increase the JC-1 ratio, the percent maximal intensity in JC-1 ratio was normalized to that induced by the peak value for 10 μM dimebolin and plotted against the compound concentration to calculate EC50 values and to control for plate-to-plate variability. Concentration-response data were analyzed using GraphPad Prism (San Diego, Calif.); the EC50 values were derived from a single curve fit to the mean data of n=2-3, in duplicates.
All compounds were dissolved in dimethyl sulfoxide at 10 mM stock solutions and tested at a concentration that the dimethyl sulfoxide levels never exceeded 1%.

SMILES	Emax	EC50
COC(=O)N1C2CCC1c1c([nH]c3c(/C=C/c4ccc(C)nc4)cccc13)C2 (stereo not drawn) [Example 19, methyl 4-[(E)-2-(6-methylpyridin-3-yl)vinyl]-5,6,7,8,9,10-hexahydro-7,10-epiminocyclohepta[b]indole-11-carboxylate]	178%	5.37 µM
CC(=O)N1C2CCC1c1c([nH]c3c(-c4ccc5ncccc5c4)cccc13)C2 (stereo not drawn) [Example 23, 11-acetyl-4-quinolin-6-yl-5,6,7,8,9,10-hexahydro-7,10-epiminocyclohepta[b]indole]	209%	6.11 µM
CN1[C@@H]2CC[C@H]1c1c([nH]c3c(OCc4ccccc4)cccc13)C2 (stereo in doubt) [Example 5, (7R*,10S*)-4-(benzyloxy)-11-methyl-5,6,7,8,9,10-hexahydro-7,10-epiminocyclohepta[b]indole]	24%	> 30 µM
c1ccc(COc2cccc3c4c([nH]c23)C[C@@H]2CCC[C@H]4N2)cc1 (stereo in doubt) [Example 10, (7S*,11R*)-4-(benzyloxy)-6,7,8,9,10,11-hexahydro-5H-7,11-epiminocycloocta[b]indole]	128%	4.81 µM
Cc1ccc(/C=C/c2cccc3c4c([nH]c23)CC2CNC4C2)cn1 (stereo not drawn) [Example 30, 7-[(E)-2-(6-methylpyridin-3-yl)vinyl]-1,2,3,4,5,6-hexahydro-1,4-methanoazepino[4,3-b]indole]	118%	5.59 µM
Cc1ccc(C#Cc2cccc3c4c([nH]c23)CC2CCC4N2C)cn1 (stereo not drawn) [Example 3, 11-methyl-4-[(6-methylpyridin-3-yl)ethynyl]-5,6,7,8,9,10-hexahydro-7,10-epiminocyclohepta[b]indole]	244%	6.18 µM
